Several values for one entry are separate records, joined by “and”; a condition that tells them apart may be missing. Identical values can stand only once. Toxic doses and inconclusive results are not listed. No stated cut-off is given here; in the data, active means T/C of 150% or more; inactive means T/C below 125%.
Test system: L1210 leukemia ip in BDF1 mice, survival T/C
Assay: NCI In Vivo Anticancer Drug Screen. Data for tumor model L1210 Leukemia (intraperitoneal) in B6D2F1 (BDF1) mice
Conditions: endpoint: mean survival time, higher = longer survival
Outline: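 Mice bearing the transplanted tumor received compound or vehicle. Survival of the treated group was divided by that of the vehicle-treated control group to give the ratio.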

[1] = dose: 100.0 mg/kg/injection, schedule: Q04DX002 (ip), vehicle: saline with Tween-80
[2] = dose: 200.0 mg/kg/injection, schedule: Q04DX002 (ip), vehicle: saline with Tween-80
[3] = dose: 400.0 mg/kg/injection, schedule: Q04DX002 (ip), vehicle: saline with Tween-80
[4] = dose: 50.0 mg/kg/injection, schedule: Q04DX002 (ip), vehicle: saline with Tween-80
[5] = dose: 12.5 mg/kg/injection, schedule: Q01DX009 (ip), vehicle: Klucel (hydroxypropylcellulose) (HPC)
[6] = dose: 25.0 mg/kg/injection, schedule: Q01DX009 (ip), vehicle: Klucel (hydroxypropylcellulose) (HPC)
[7] = dose: 25.0 mg/kg/injection, schedule: Q04DX003 (ip), vehicle: Klucel (hydroxypropylcellulose) (HPC)
[8] = dose: 50.0 mg/kg/injection, schedule: Q04DX003 (ip), vehicle: Klucel (hydroxypropylcellulose) (HPC)
[9] = dose: 100.0 mg/kg/injection, schedule: Q04DX003 (ip), vehicle: Klucel (hydroxypropylcellulose) (HPC)
[10] = dose: 200.0 mg/kg/injection, schedule: Q04DX003 (ip), vehicle: Klucel (hydroxypropylcellulose) (HPC)
[11] = dose: 400.0 mg/kg/injection, schedule: Q04DX003 (ip), vehicle: Klucel (hydroxypropylcellulose) (HPC)
[12] = dose: 50.0 mg/kg/injection, schedule: Q01DX009 (ip), vehicle: Klucel (hydroxypropylcellulose) (HPC)

Measured: T/C

CCCS(=O)(=O)N1CCCC1
inactive: [1] 99 % of control | [2] 105 % of control | [3] 99 % of control

CC(C)(C)CC(C)(C)O
inactive: dose: 100.0 mg/kg/injection, schedule: Q01DX001 (ip), vehicle: saline 102 % of control | dose: 200.0 mg/kg/injection, schedule: Q01DX001 (ip), vehicle: saline 102 % of control | dose: 400.0 mg/kg/injection, schedule: Q01DX001 (ip), vehicle: saline 96 % of control

O=C1C(Cl)=CC(Cl)=C/C1=N/Cl
inactive: dose: 25.0 mg/kg/injection, schedule: Q01DX001 (ip), vehicle: Klucel (hydroxypropylcellulose) (HPC) 110 % of control | dose: 50.0 mg/kg/injection, schedule: Q01DX001 (ip), vehicle: Klucel (hydroxypropylcellulose) (HPC) 107 % of control | dose: 100.0 mg/kg/injection, schedule: Q01DX001 (ip), vehicle: Klucel (hydroxypropylcellulose) (HPC) 95 % of control and 100 % of control

CCNC(C)(C)C(SS(=O)(=O)O)c1ccc(Cl)s1 (stereo unspecified)
inactive: dose: 100.0 mg/kg/injection, schedule: Q01DX009 (ip), vehicle: saline with Tween-80 96 % of control | dose: 100.0 mg/kg/injection, schedule: Q04DX003 (ip), vehicle: saline with Tween-80 102 % of control | dose: 200.0 mg/kg/injection, schedule: Q01DX009 (ip), vehicle: saline with Tween-80 90 % of control | dose: 200.0 mg/kg/injection, schedule: Q04DX003 (ip), vehicle: saline with Tween-80 96 % of control | dose: 400.0 mg/kg/injection, schedule: Q04DX003 (ip), vehicle: saline with Tween-80 92 % of control

COC(=O)C(Br)(Br)C(=O)OC
inactive: dose: 12.5 mg/kg/injection, schedule: Q04DX002 (ip), vehicle: saline with Tween-80 97 % of control | dose: 25.0 mg/kg/injection, schedule: Q04DX002 (ip), vehicle: saline with Tween-80 105 % of control | [4] 101 % of control

CCC(=O)NC1CC(OC2CC(O)(C(C)=O)Cc3c(O)c4c(c(O)c32)C(=O)c2c(OC)cccc2C4=O)OC(C)C1O (stereo unspecified)
inactive: dose: 2.0 mg/kg/injection, schedule: Q04DX003 (ip), vehicle: water 104 % of control | dose: 3.12 mg/kg/injection, schedule: Q01DX009 (ip), vehicle: saline with Tween-80 96 % of control | dose: 4.0 mg/kg/injection, schedule: Q04DX003 (ip), vehicle: water 105 % of control | dose: 6.25 mg/kg/injection, schedule: Q01DX009 (ip), vehicle: saline with Tween-80 105 % of control | dose: 8.0 mg/kg/injection, schedule: Q04DX003 (ip), vehicle: water 103 % of control | dose: 12.5 mg/kg/injection, schedule: Q01DX009 (ip), vehicle: saline with Tween-80 105 % of control | dose: 16.0 mg/kg/injection, schedule: Q04DX003 (ip), vehicle: water 101 % of control and 102 % of control | dose: 18.75 mg/kg/injection, schedule: Q04DX003 (ip), vehicle: saline with Tween-80 105 % of control | dose: 25.0 mg/kg/injection, schedule: Q01DX009 (ip), vehicle: saline with Tween-80 111 % of control | dose: 32.0 mg/kg/injection, schedule: Q04DX003 (ip), vehicle: water 116 % of control | dose: 37.5 mg/kg/injection, schedule: Q04DX003 (ip), vehicle: saline with Tween-80 105 % of control | dose: 50.0 mg/kg/injection, schedule: Q01DX009 (ip), vehicle: saline with Tween-80 113 % of control | dose: 64.0 mg/kg/injection, schedule: Q04DX003 (ip), vehicle: water 112 % of control | dose: 75.0 mg/kg/injection, schedule: Q04DX003 (ip), vehicle: saline with Tween-80 105 % of control | dose: 150.0 mg/kg/injection, schedule: Q04DX003 (ip), vehicle: saline with Tween-80 122 % of control | dose: 125.0 micrograms/kg/injection, schedule: Q04DX003 (ip), vehicle: water 100 % of control | dose: 250.0 micrograms/kg/injection, schedule: Q04DX003 (ip), vehicle: water 102 % of control | dose: 500.0 micrograms/kg/injection, schedule: Q04DX003 (ip), vehicle: water 97 % of control | dose: 1000.0 micrograms/kg/injection, schedule: Q04DX003 (ip), vehicle: water 103 % of control | dose: 2000.0 micrograms/kg/injection, schedule: Q04DX003 (ip), vehicle: water 96 % of control

CC(C)CC(C=NCC(CCN(C)C)(CC(C)C)c1cccc2ccccc12)(CCN(C)C)c1cccc2ccccc12 (stereo unspecified)
inactive: [5] 106 % of control | dose: 12.5 mg/kg/injection, schedule: Q04DX003 (ip), vehicle: Klucel (hydroxypropylcellulose) (HPC) 106 % of control | [6] 88 % of control | [7] 94 % of control | [8] 92 % of control

COC(=O)C1C2CCc3cc(OC)ccc3C2CCC1(C)C(=O)O (stereo unspecified)
inactive: [9] 95 % of control | [10] 95 % of control | [11] 91 % of control

CCN(CC)CCC(C#N)(CC=C(C)C)c1cccc2ccccc12 (stereo unspecified)
inactive: [5] 100 % of control | [6] 110 % of control | [12] 97 % of control

O=C(CCCN1CCC2(CC1)C(=O)NCN2c1ccccc1)c1ccc(F)cc1
inactive: dose: 0.78 mg/kg/injection, schedule: Q01DX009 (ip), vehicle: saline 96 % of control | dose: 0.78 mg/kg/injection, schedule: Q04DX003 (ip), vehicle: saline 98 % of control | dose: 1.56 mg/kg/injection, schedule: Q01DX009 (ip), vehicle: saline 105 % of control | dose: 1.56 mg/kg/injection, schedule: Q04DX003 (ip), vehicle: saline 96 % of control | dose: 3.12 mg/kg/injection, schedule: Q01DX009 (ip), vehicle: saline 107 % of control | dose: 3.12 mg/kg/injection, schedule: Q04DX003 (ip), vehicle: saline 105 % of control | dose: 6.25 mg/kg/injection, schedule: Q01DX009 (ip), vehicle: saline 97 % of control | dose: 6.25 mg/kg/injection, schedule: Q04DX003 (ip), vehicle: saline 106 % of control | dose: 12.5 mg/kg/injection, schedule: Q01DX009 (ip), vehicle: saline 92 % of control | dose: 12.5 mg/kg/injection, schedule: Q04DX003 (ip), vehicle: saline 124 % of control | dose: 50.0 mg/kg/injection, schedule: Q04DX003 (ip), vehicle: saline 120 % of control | dose: 200.0 mg/kg/injection, schedule: Q04DX003 (ip), vehicle: saline 93 % of control

CCCCCCCCCCCCCCCC(=O)NNC(C)C
inactive: [6] 94 % of control | [7] 94 % of control | [12] 95 % of control | [8] 91 % of control | dose: 100.0 mg/kg/injection, schedule: Q01DX009 (ip), vehicle: Klucel (hydroxypropylcellulose) (HPC) 86 % of control | [9] 105 % of control | dose: 200.0 mg/kg/injection, schedule: Q01DX009 (ip), vehicle: Klucel (hydroxypropylcellulose) (HPC) 91 % of control | [10] 89 % of control | dose: 400.0 mg/kg/injection, schedule: Q01DX009 (ip), vehicle: Klucel (hydroxypropylcellulose) (HPC) 92 % of control | [11] 89 % of control

O=C(O)COc1ccc(Cl)cc1CC(=O)O
inactive: [4] 99 % of control | [1] 100 % of control and 105 % of control | [2] 99 % of control and 103 % of control | [3] 103 % of control

Cc1c2ccccc2c(C)c2c1ccc1ccccc12
inactive: dose: 6.25 mg/kg/injection, schedule: Q01DX001 (ip), vehicle: acetone 123 % of control | dose: 12.37 mg/kg/injection, schedule: Q04DX003 (ip), vehicle: saline with Tween-80 112 % of control
